Data as given in ChEMBL document CHEMBL1127385, “Synthesis and diuretic activity of alkyl- and arylguanidine analogs of N,N'-dicyclohexyl-4-morpholinecarboxamidine in rats and dogs” (J Med Chem, 1994).
One block for each compound: values may come before it.

How the values were obtained:
Rattus norvegicus [1] = experiment: Ratio of Total electrolytic excretion of sodium and potassium in urine of rats after peroral administration of 80.9 uM/Kg of drug; type: ADME, organism-based; conditions: in vivo, po
Rattus norvegicus [2] = experiment: Ratio of Total electrolytic excretion of sodium and potassium in urine of rats after peroral administration of 270 uM/Kg of drug; type: ADME, organism-based; conditions: in vivo, po
Rattus norvegicus [3] = experiment: Total electrolytic excretion of potassium in urine of rats after peroral administration of 27 uM/Kg of drug; type: ADME, organism-based; conditions: in vivo, po
Rattus norvegicus [4] = experiment: Tested for the diuretic activity by measuring the urinary volume after peroral administering 80.9 uM/Kg of drug in rats; type: ADME, organism-based, Urine; conditions: in vivo, po
Rattus norvegicus [5] = experiment: Total electrolytic excretion of sodium in urine of rats after peroral administration of 80.9 uM/Kg of drug; type: ADME, organism-based; conditions: in vivo, po
Rattus norvegicus [6] = experiment: Total electrolytic excretion of chlorine in urine of rats after peroral administration of 27 uM/Kg of drug; type: ADME, organism-based; conditions: in vivo, po
Rattus norvegicus [7] = experiment: Tested for the diuretic activity by measuring the urinary volume after peroral administering 27 uM/Kg of drug in rats; type: ADME, organism-based, Urine; conditions: in vivo, po
Rattus norvegicus [8] = experiment: Tested for the diuretic activity by measuring the urinary volume after peroral administering 270 uM/Kg of drug in rats; type: ADME, organism-based, Urine; conditions: in vivo, po
Rattus norvegicus [9] = experiment: Total electrolytic excretion of potassium in urine of rats after peroral administration of 80.9 uM/Kg of drug; type: ADME, organism-based; conditions: in vivo, po
Rattus norvegicus [10] = experiment: Ratio of Total electrolytic excretion of sodium and potassium in urine of rats after peroral administration of 27 uM/Kg of drug; type: ADME, organism-based; conditions: in vivo, po
Rattus norvegicus [11] = experiment: Total electrolytic excretion of chlorine in urine of rats after peroral administration of 270 uM/Kg of drug; type: ADME, organism-based; conditions: in vivo, po
Rattus norvegicus [12] = experiment: Total electrolytic excretion of potassium in urine of rats after peroral administration of 270 uM/Kg of drug; type: ADME, organism-based; conditions: in vivo, po
Rattus norvegicus [13] = experiment: Total electrolytic excretion of sodium in urine of rats after peroral administration of 270 uM/Kg of drug; type: ADME, organism-based; conditions: in vivo, po
Rattus norvegicus [14] = experiment: Total electrolytic excretion of sodium in urine of rats after peroral administration of 27 uM/Kg of drug; type: ADME, organism-based; conditions: in vivo, po
Rattus norvegicus [15] = experiment: Total electrolytic excretion of chlorine in urine of rats after peroral administration of 80.9 uM/Kg of drug; type: ADME, organism-based; conditions: in vivo, po
Rattus norvegicus [16] = experiment: Total electrolytic excretion of chlorine in urine of rats after peroral administration of 0 uM/Kg of drug; type: ADME, organism-based; conditions: in vivo, po
Rattus norvegicus [17] = experiment: Total electrolytic excretion of chlorine in urine of rats after peroral administration of 113 uM/Kg of drug; type: ADME, organism-based; conditions: in vivo, po
Canis familiaris [18] = experiment: Ratio of Total electrolytic excretion of sodium and potassium in urine of dogs after peroral administration of 37.6 uM/Kg of drug; type: ADME, organism-based, Canis lupus familiaris; conditions: dog, in vivo, po
Rattus norvegicus [19] = experiment: Total electrolytic excretion of sodium in urine of rats after peroral administration of 37.6 uM/Kg of drug; type: ADME, organism-based; conditions: in vivo, po
Canis familiaris [20] = experiment: Total electrolytic excretion of chlorine in urine of dogs after peroral administration of 3.76 uM/Kg of drug; type: ADME, organism-based, Canis lupus familiaris; conditions: dog, in vivo, po
Rattus norvegicus [21] = experiment: Tested for the diuretic activity by measuring the urinary volume after peroral administering 3.76 uM/Kg of drug in rats; type: ADME, organism-based, Urine; conditions: in vivo, po
Canis familiaris [22] = experiment: Ratio of Total electrolytic excretion of sodium and potassium in urine of dogs after peroral administration of 11.3 uM/Kg of drug; type: ADME, organism-based, Canis lupus familiaris; conditions: dog, in vivo, po
Rattus norvegicus [23] = experiment: Total electrolytic excretion of sodium in urine of rats after peroral administration of 0 uM/Kg of drug; type: ADME, organism-based; conditions: in vivo, po
Rattus norvegicus [24] = experiment: Tested for the diuretic activity by measuring the urinary volume after peroral administering 1.13 uM/Kg of drug in rats; type: ADME, organism-based, Urine; conditions: in vivo, po
Canis familiaris [25] = experiment: Total electrolytic excretion of potassium in urine of dogs after peroral administration of 3.76 uM/Kg of drug; type: ADME, organism-based, Canis lupus familiaris; conditions: dog, in vivo, po
Canis familiaris [26] = experiment: Ratio of Total electrolytic excretion of sodium and potassium in urine of dogs after peroral administration of 0 uM/Kg of drug; type: ADME, organism-based, Canis lupus familiaris; conditions: dog, in vivo, po
Canis familiaris [27] = experiment: Ratio of Total electrolytic excretion of sodium and potassium in urine of dogs after peroral administration of 1.13 uM/Kg of drug; type: ADME, organism-based, Canis lupus familiaris; conditions: dog, in vivo, po
Rattus norvegicus [28] = experiment: Total electrolytic excretion of potassium in urine of rats after peroral administration of 11.3 uM/Kg of drug; type: ADME, organism-based; conditions: in vivo, po
Rattus norvegicus [29] = experiment: Total electrolytic excretion of chlorine in urine of rats after peroral administration of 11.3 uM/Kg of drug; type: ADME, organism-based; conditions: in vivo, po
Rattus norvegicus [30] = experiment: Tested for the diuretic activity by measuring the urinary volume after peroral administering 0 uM/Kg of drug in rats; type: ADME, organism-based, Urine; conditions: in vivo, po
Rattus norvegicus [31] = experiment: Total electrolytic excretion of potassium in urine of rats after peroral administration of 113 uM/Kg of drug; type: ADME, organism-based; conditions: in vivo, po
Canis familiaris [32] = experiment: Total electrolytic excretion of sodium in urine of dogs after peroral administration of 3.76 uM/Kg of drug; type: ADME, organism-based, Canis lupus familiaris; conditions: dog, in vivo, po
Rattus norvegicus [33] = experiment: Total electrolytic excretion of potassium in urine of rats after peroral administration of 1.13 uM/Kg of drug; type: ADME, organism-based; conditions: in vivo, po
Rattus norvegicus [34] = experiment: Total electrolytic excretion of sodium in urine of rats after peroral administration of 3.76 uM/Kg of drug; type: ADME, organism-based; conditions: in vivo, po
Rattus norvegicus [35] = experiment: Total electrolytic excretion of potassium in urine of rats after peroral administration of 0 uM/Kg of drug; type: ADME, organism-based; conditions: in vivo, po
Rattus norvegicus [36] = experiment: Tested for the diuretic activity by measuring the urinary volume after peroral administering 113 uM/Kg of drug in rats; type: ADME, organism-based, Urine; conditions: in vivo, po
Rattus norvegicus [37] = experiment: Total electrolytic excretion of chlorine in urine of rats after peroral administration of 3.76 uM/Kg of drug; type: ADME, organism-based; conditions: in vivo, po
Rattus norvegicus [38] = experiment: Total electrolytic excretion of chlorine in urine of rats after peroral administration of 1.13 uM/Kg of drug; type: ADME, organism-based; conditions: in vivo, po
Rattus norvegicus [39] = experiment: Total electrolytic excretion of sodium in urine of rats after peroral administration of 1.13 uM/Kg of drug; type: ADME, organism-based; conditions: in vivo, po
Rattus norvegicus [40] = experiment: Total electrolytic excretion of sodium in urine of rats after peroral administration of 11.3 uM/Kg of drug; type: ADME, organism-based; conditions: in vivo, po
Rattus norvegicus [41] = experiment: Tested for the diuretic activity by measuring the urinary volume after peroral administering 11.3 uM/Kg of drug in rats; type: ADME, organism-based, Urine; conditions: in vivo, po
Canis familiaris [42] = experiment: Ratio of Total electrolytic excretion of sodium and potassium in urine of dogs after peroral administration of 113 uM/Kg of drug; type: ADME, organism-based, Canis lupus familiaris; conditions: dog, in vivo, po
Canis familiaris [43] = experiment: Tested for the diuretic activity by measuring the urinary volume after peroral administering 3.76 uM/Kg of drug in dogs; type: ADME, organism-based, Canis lupus familiaris, Urine; conditions: dog, in vivo, po
Rattus norvegicus [44] = experiment: Tested for the diuretic activity by measuring the urinary volume after peroral administering 37.6 uM/Kg of drug in rats; type: ADME, organism-based, Urine; conditions: in vivo, po
Rattus norvegicus [45] = experiment: Total electrolytic excretion of potassium in urine of rats after peroral administration of 37.6 uM/Kg of drug; type: ADME, organism-based; conditions: in vivo, po
Rattus norvegicus [46] = experiment: Total electrolytic excretion of sodium in urine of rats after peroral administration of 113 uM/Kg of drug; type: ADME, organism-based; conditions: in vivo, po
Rattus norvegicus [47] = experiment: Total electrolytic excretion of potassium in urine of rats after peroral administration of 3.76 uM/Kg of drug; type: ADME, organism-based; conditions: in vivo, po
Rattus norvegicus [48] = experiment: Total electrolytic excretion of chlorine in urine of rats after peroral administration of 37.6 uM/Kg of drug; type: ADME, organism-based; conditions: in vivo, po

- Ratio (Rattus norvegicus [1]): 3.9 [Na+]/[K+]
- Ratio (Rattus norvegicus [2]): 5.2 [Na+]/[K+]
- Excretion K+ (Rattus norvegicus [3]): 0.31 m equiv
- V (Rattus norvegicus [4]): 8.4 mL
- Excretion Na+ (Rattus norvegicus [5]): 1.28 m equiv
- Excretion Cl- (Rattus norvegicus [6]): 0.96 m equiv
- V (Rattus norvegicus [7]): 6.6 mL
- V (Rattus norvegicus [8]): 5.6 mL
- Excretion K+ (Rattus norvegicus [9]): 0.33 m equiv
- Ratio (Rattus norvegicus [10]): 2.7 [Na+]/[K+]
- Excretion Cl- (Rattus norvegicus [11]): 1.01 m equiv
- Excretion K+ (Rattus norvegicus [12]): 0.21 m equiv
- Excretion Na+ (Rattus norvegicus [13]): 1.12 m equiv
- Excretion Na+ (Rattus norvegicus [14]): 0.85 m equiv
- Excretion Cl- (Rattus norvegicus [15]): 1.31 m equiv
Compound: CC(C)CC/N=C(/NC1CCCCC1)N1CCOCC1

Compound: N=C(N)NC(=O)c1nc(Cl)c(N)nc1N [AMILORIDE]
- Excretion Cl- (Rattus norvegicus [16]): 0.78 m equiv
- Excretion Cl- (Rattus norvegicus [17]): 1.43 m equiv
- Ratio (Canis familiaris [18]): 45.2 [Na+]/[K+]
- Excretion Na+ (Rattus norvegicus [19]): 2.27 m equiv
- Excretion Cl- (Canis familiaris [20]): 4.3 m equiv
- V (Rattus norvegicus [21]): 9.1 mL
- Ratio (Canis familiaris [22]): 30.8 [Na+]/[K+]
- Excretion Na+ (Rattus norvegicus [23]): 0.73 m equiv
- V (Rattus norvegicus [24]): 7.2 mL
- Excretion K+ (Canis familiaris [25]): 0.4 m equiv
- Ratio (Canis familiaris [26]): 2 [Na+]/[K+]
- Ratio (Canis familiaris [27]): 7.8 [Na+]/[K+]
- Excretion K+ (Rattus norvegicus [28]): 0.07 m equiv
- Excretion Cl- (Rattus norvegicus [29]): 1.73 m equiv
- V (Rattus norvegicus [30]): 4.8 mL
- Excretion K+ (Rattus norvegicus [31]): 0.05 m equiv
- Excretion Na+ (Canis familiaris [32]): 9.5 m equiv
- Excretion K+ (Rattus norvegicus [33]): 0.17 m equiv
- Excretion Na+ (Rattus norvegicus [34]): 1.65 m equiv
- Excretion K+ (Rattus norvegicus [35]): 0.36 m equiv
- V (Rattus norvegicus [36]): 9.4 mL
- Excretion Cl- (Rattus norvegicus [37]): 1.29 m equiv
- Excretion Cl- (Rattus norvegicus [38]): 1.14 m equiv
- Excretion Na+ (Rattus norvegicus [39]): 1.33 m equiv
- Excretion Na+ (Rattus norvegicus [40]): 2.17 m equiv
- V (Rattus norvegicus [41]): 12.6 mL
- Ratio (Canis familiaris [42]): 38.8 [Na+]/[K+]
- V (Canis familiaris [43]): 59 mL
- V (Rattus norvegicus [44]): 13.9 mL
- Excretion K+ (Rattus norvegicus [45]): 0.05 m equiv
- Excretion Na+ (Rattus norvegicus [46]): 1.77 m equiv
- Excretion K+ (Rattus norvegicus [47]): 0.1 m equiv
- Excretion Cl- (Rattus norvegicus [48]): 1.86 m equiv
